Patent US9056862B2, “Thioxothiazolidine derivative having Ras function inhibitory effect” (NATIONAL UNIVERSITY CORPORATION KOBE UNIVERSITY, priority 2011, dated 2015)

How the values were obtained:
Ras-Raf binding = target: T1, Ras-Raf binding; assay: In vitro binding assay: Ras-Raf binding inhibition (GST-Raf on resin, GTPγ[35S]-labeled Ras, scintillation counting); settings: GST-Raf fusion protein on resin, radioactive Ras, compound dissolved in 10% DMSO
T1 construct: fused on or other part: GST tag on Ras was cleaved off with PreScission protease before the test
Description: • 1) A fusion protein of Raf (target protein of Ras) and GST (glutathione S-transferase) was expressed in Escherichia coli using GST fusion protein expression vector (pGEX-6P-1 vector (GE Healthcare)). The expressed GST-Raf fusion protein was immobilized on an affinity carrier for purification (glutathione Sepharose 4B: resin (GE Healthcare)). • 2) Radioisotope-labeled Ras
GTPγ[^35S] (Perkin Elmer), which is one of the GTP analogs, was added to Ras in which GST tag was cleaved using GST fusion protein cleavage protease (PreScission protease (GE Healthcare)) to prepare radioisotope-labeled Ras. • 3) Measurement of Ras-Raf binding inhibition activity
GST-Raf fusion protein immobilized on the resin in the above-mentioned 1) and the radioactive Ras prepared in the above-mentioned 2) were incubated in the presence of various concentrations of a compound dissolved in 10% DMSO to promote the binding reaction between Ras and Raf. The resin in the reaction solution was washed, and then, the complex of GST-Raf fusion protein and radioactive Ras was eluted by adding glutathione. The binding activity between Ras and Raf was measured by scintillation counting of the radioactivity of the eluate. Thus, the Ras-Raf binding inhibition activity by addition of various compounds was evaluated.

[1] = test system: human colorectal cancer cell line, SW480, which has active form of K-Ras; assay: In vivo assay: tumor growth inhibition in SW480 xenograft in nude mice; settings: 80 mg/kg orally once a day, five consecutive days per week, after three-week administration; SW480 subcutaneous in female nude mice; control group = 100%
Description: A cell suspension (about 2×10^6 cells) of human colorectal cancer cell line, SW480, which has active form of K-Ras, was subcutaneously inoculated and implanted with a syringe at the right flank of 6 to 8-week-old nude mice (female). After a tumor grew to the grossly recognizable size (40-100 mm^3), a compound (80 mg/kg) dissolved in a solvent (Cremophor EL:Ethanol:Water=1:1:6) was orally administered once a day for five consecutive days per week. This is considered as the compound administration group. A solvent alone was administered to control group in the same manner. After the compound administration started, tumor volumes of both the groups were measured twice a week. Tumor growth inhibition rates were calculated by comparing tumor volumes of control group (100%) and those of compound administration group after three-week administration to evaluate anticancer activity of a compound. The tumor growth inhibition rates in the case of orally administering compounds of the present invention at 80 mg/Kg are shown in the following Table 7.

Row | IC50 (Ras-Raf binding) [µM] | Structure (SMILES) | tumor growth inhibition rate (%) [1] [%]
1 | 160 | O=C1/C(=C/c2ccccc2OCCOc2ccccc2)SC(=S)N1NC1=NS(=O)(=O)c2ccccc21 [Example 53] | –
2 | 100 | O=C1/C(=C/c2ccccc2Oc2ccccc2)SC(=S)N1NC1=NS(=O)(=O)c2ccccc21 [Example 13] | 70
3 | 100 | O=C1/C(=C/c2ccc(OCc3ccccc3)cc2)SC(=S)N1NC1=NS(=O)(=O)c2ccccc21 [Example 16] | 69
4 | 50 | O=C1/C(=C/c2cccc(Oc3ccccc3)c2)SC(=S)N1NC1=NS(=O)(=O)c2ccccc21 [Example 12] | 86
5 | 100 | Cc1ccc(OCCOc2ccccc2/C=C2\SC(=S)N(NC3=NS(=O)(=O)c4ccccc43)C2=O)cc1 [Example 55] | –
6 | 400 | O=C1/C(=C/c2ccc(Br)cc2)SC(=S)N1NC1=NS(=O)(=O)c2ccccc21 [Example 6] | 85
7 | 90 | O=C1/C(=C/c2ccccc2OCCOc2ccc([N+](=O)[O-])cc2)SC(=S)N1NC1=NS(=O)(=O)c2ccccc21 [Example 56] | 62

Row | Structure (SMILES) | IC50 (Ras-Raf binding) [µM] | tumor growth inhibition rate (%) [1] [%]
8 | CC(C)(C)OC(=O)NCCOc1cccc(C=C2SC(=S)N(NC3=NS(=O)(=O)c4ccccc43)C2=O)c1 [Example 167, 3-[(4-Oxo-5-(3-(2-t-butoxycarbonylaminoethyloxy)benzylidene)-2-thioxothiazolidin-3-yl)amino]-1,2-benzothiazole 1,1-dioxide] | 360 | –
9 | O=C1/C(=C/c2ccc(Oc3ccccc3)cc2)SC(=S)N1NC1=NS(=O)(=O)c2ccccc21 [Example 1, 3-[(4-oxo-5-(4-phenoxybenzylidene)-2-thioxothiazolidin-3-yl)amino]-1,2-benzisothiazole 1,1-dioxide] | 70 | 88
10 | O=C1/C(=C/c2ccc([N+](=O)[O-])cc2[N+](=O)[O-])SC(=S)N1NC1=NS(=O)(=O)c2ccccc21 [Example 7] | 200 | 85
